Experiments:
RIF tumors [1] = experiment: Tumor uptake by in vivo reflectance spectroscopy; set-up: species or system C3H mice
Method: The tumor uptake of conjugate 5 was determined by in vivo reflectance spectroscopy. For these experiments, C3H mice bearing RIF tumors were injected with 5.0 μmole/kg of conjugate 5 and the in vivo absorption spectra were taken at various time intervals.

RIF tumor cells = experiment: Site of intracellular localization compared with a mitochondrial probe; format: cell-based; conditions: 24 hours incubation; compared with MITO-TRACKER green (400 nM); FIG. 8
From the text: In general, porphyrin based compounds have shown diverse patterns of localization at least somewhat dependent upon structure, lipophilicity and charge.

RIF tumors [2] = experiment: Photosensitizing efficiency (photodynamic therapy of implanted tumors); format: in vivo, C3H mice; conditions: light 135 J/cm^2 at 665 nm, 24 hours post injection, FIG. 7
Method: To measure photosensitizing efficiency, RIF tumors were implanted subcutaneously into axilla of 5-7 week old female C3H mice. When tumors grew to about […] in size, conjugate 5 was injected at variable doses (0.5, 1.0, 1.5, and 2.5 μmole/kg) The tumors were treated with light at an energy of 135 J/cm^2 at a wavelength of 665 nm (in vivo absorption band for HPPH) at 24 hours post injection and the mice were observed daily. From the results summarized in FIG. 7, it can be seen that conjugate 5 produced 100% tumor cure at a dose of 2.5 μmole/kg (the tumor imaging dose).

uptake in skin relative to tumor, dye alone (RIF tumors [1]; 5.0 μmole/kg, dye alone, C3H mouse bearing tumor)	tumor uptake compared with HPPH-ICG conjugate 5 (RIF tumors [1]; 5.0 μmole/kg, dye alone, FIG. 5)	time post injection at which cleared from both tumor and skin (RIF tumors [1]; 5.0 μmole/kg, dye alone, found to clear rapidly)	Structure (SMILES)	uptake in tumor relative to skin (RIF tumors [1]; 5.0 μmole/kg injected, 24 hours post injection, FIG. 3)	site of localization in cells (RIF tumor cells)	tumor cure (RIF tumors [2]; 2.5 μmole/kg)	photosensitizing efficacy at lower doses (RIF tumors [2]; doses below 2.5 μmole/kg (0.5, 1.0, 1.5))
–	–	–	CCCCCCOC(C)c1c(C)c2cc3nc(c4c5[nH]c(cc6nc(cc1[nH]2)C(C)=C6CC)c(C)c5C(=O)C4)C(CCC(=O)Nc1ccc(SC2=C(C=CC4=[N+](CCCCS(=O)(=O)[O-])c5ccc6ccccc6c5C4(C)C)CCCC2=CC=C2N(CCCCS(=O)(=O)[O-])c4ccc5ccccc5c4C2(C)C)cc1)C3C.[Na+] (stereo not shown) [conjugate 5]	more significant uptake in tumor than skin	localizes in mitochondria	100%	limited photosensitizing efficacy
higher uptake in skin than in tumor	significantly lower tumor uptake	4 to 5 h	CC1(C)C(=CC=C2CCCC(C=CC3=[N+](CCCCS(=O)(=O)[O-])c4ccc5ccccc5c4C3(C)C)=C2Cl)N(CCCCS(=O)(=O)[O-])c2ccc3ccccc3c21.[Na+] [indocyanine green analog (1), indocyanine green 820 nm analog CAS172616-80-7]	–	–	–	–
